# Reference: the NIST ThermoML archive (doi:10.1021/je700371w)
# ± gives the expanded uncertainty stated by the source.
# Conditions: Liquid, Closed cell (Static) method
smiles,measurement,setting,value
Cc1cccnc1N [2-amino-3-methylpyridine],vapor or sublimation pressure,328.7 K,0.098 ± 0.006 kPa
same,vapor or sublimation pressure,329.84 K,0.108 ± 0.006 kPa
same,vapor or sublimation pressure,336.23 K,0.165 ± 0.006 kPa
same,vapor or sublimation pressure,344.13 K,0.271 ± 0.007 kPa
same,vapor or sublimation pressure,349.18 K,0.368 ± 0.007 kPa
same,vapor or sublimation pressure,354.89 K,0.515 ± 0.008 kPa
same,vapor or sublimation pressure,357.64 K,0.598 ± 0.009 kPa
same,vapor or sublimation pressure,359.93 K,0.69 ± 0.06 kPa
same,vapor or sublimation pressure,363.55 K,0.82 ± 0.06 kPa
same,vapor or sublimation pressure,368.61 K,1.08 ± 0.06 kPa
same,vapor or sublimation pressure,374.67 K,1.47 ± 0.06 kPa
same,vapor or sublimation pressure,387.23 K,2.67 ± 0.06 kPa
same,vapor or sublimation pressure,390.85 K,3.13 ± 0.06 kPa
same,vapor or sublimation pressure,398.46 K,4.32 ± 0.06 kPa
same,vapor or sublimation pressure,405.57 K,5.82 ± 0.07 kPa
same,vapor or sublimation pressure,411.35 K,7.34 ± 0.07 kPa
same,vapor or sublimation pressure,415.63 K,8.67 ± 0.07 kPa
same,vapor or sublimation pressure,421.5 K,10.75 ± 0.08 kPa
same,vapor or sublimation pressure,425.85 K,12.61 ± 0.08 kPa
same,vapor or sublimation pressure,428.75 K,13.95 ± 0.08 kPa
same,vapor or sublimation pressure,431.43 K,15.29 ± 0.09 kPa
same,vapor or sublimation pressure,435.66 K,17.74 ± 0.09 kPa
same,vapor or sublimation pressure,439.42 K,20.12 ± 0.1 kPa
same,vapor or sublimation pressure,443.51 K,23.01 ± 0.1 kPa
same,vapor or sublimation pressure,447.94 K,26.5 ± 0.11 kPa
same,vapor or sublimation pressure,448.95 K,27.3 ± 0.11 kPa
same,vapor or sublimation pressure,450.76 K,28.88 ± 0.12 kPa
same,vapor or sublimation pressure,451.84 K,29.81 ± 0.12 kPa
same,vapor or sublimation pressure,454.19 K,32.09 ± 0.13 kPa
same,vapor or sublimation pressure,455.25 K,33.15 ± 0.13 kPa
same,vapor or sublimation pressure,456.78 K,34.61 ± 0.14 kPa
same,vapor or sublimation pressure,457.95 K,36.08 ± 0.14 kPa
same,vapor or sublimation pressure,460.15 K,38.48 ± 0.14 kPa
same,vapor or sublimation pressure,461.72 K,40.22 ± 0.14 kPa
same,vapor or sublimation pressure,469.63 K,50.38 ± 0.18 kPa
same,vapor or sublimation pressure,478.22 K,63.87 ± 0.21 kPa
same,vapor or sublimation pressure,484.84 K,76.42 ± 0.24 kPa
same,vapor or sublimation pressure,490.45 K,87.65 ± 0.27 kPa
same,vapor or sublimation pressure,495.13 K,99.74 ± 0.25 kPa
same,vapor or sublimation pressure,496.05 K,101.44 ± 0.28 kPa
same,vapor or sublimation pressure,497.73 K,105.38 ± 0.31 kPa
same,vapor or sublimation pressure,498.8 K,108.53 ± 0.33 kPa
same,vapor or sublimation pressure,499.88 K,111.35 ± 0.32 kPa
O [water],vapor or sublimation pressure,297.95 K,3.14 ± 0.07 kPa
same,vapor or sublimation pressure,303.85 K,4.41 ± 0.07 kPa
same,vapor or sublimation pressure,309.05 K,5.93 ± 0.07 kPa
same,vapor or sublimation pressure,313.25 K,7.44 ± 0.08 kPa
same,vapor or sublimation pressure,318.75 K,9.86 ± 0.08 kPa
same,vapor or sublimation pressure,322.95 K,12.2 ± 0.09 kPa
same,vapor or sublimation pressure,329.35 K,16.71 ± 0.1 kPa
same,vapor or sublimation pressure,333.45 K,20.18 ± 0.12 kPa
same,vapor or sublimation pressure,338.55 K,25.51 ± 0.14 kPa
same,vapor or sublimation pressure,342.85 K,30.8 ± 0.16 kPa
same,vapor or sublimation pressure,348.25 K,38.66 ± 0.19 kPa
same,vapor or sublimation pressure,353.65 K,48.42 ± 0.22 kPa
same,vapor or sublimation pressure,358.35 K,58.2 ± 0.26 kPa
same,vapor or sublimation pressure,362.95 K,69.67 ± 0.3 kPa
same,vapor or sublimation pressure,368.45 K,85.35 ± 0.34 kPa
same,vapor or sublimation pressure,371.75 K,96.28 ± 0.38 kPa
same,vapor or sublimation pressure,373.25 K,101.56 ± 0.42 kPa
same,vapor or sublimation pressure,375.75 K,111.23 ± 0.44 kPa
